According to ChEMBL document CHEMBL5154826, “Discovery of the Clinical Candidate MAK683: An EED-Directed, Allosteric, and Selective PRC2 Inhibitor for the Treatment of Advanced Malignancies” (J Med Chem, 2022):
Converted amounts (≈) assume the structure as drawn.

What was measured:
[1] = Metabolic stability in dog microsomes assessed as intrinsic clearance; format: ADME, Canis lupus familiaris, Microsome; conditions: read-out: CLH
[2] = Intrinsic clearance in dog hepatocytes measured per 10^6 cells; format: ADME, cell-based, Canis lupus familiaris, Hepatocyte; conditions: read-out: CLH
[3] = Terminal half life in wild type Beagle dog at 2 mg/kg, po or 1 mg/kg, iv after 1 week by LC-MS/MS analysis; format: ADME, organism-based, Canis lupus familiaris; conditions: in vivo, time 1 weeks, read-out: beta t1/2 (converted)
[4] = Plasma clearance in dog assessed as hepatic extraction; format: ADME, cell-free, Canis lupus familiaris; conditions: read-out: ERH
[5] = Ratio of drug level in dog blood to plasma; format: ADME, cell-free, Canis lupus familiaris; conditions: whole blood
[6] = Toxicity in Athymic NTac:NIH-Whn nude rat xenografted with human Karpas-422 cells assessed as reduction in body weight at 60 mg/kg, po, qd measured upto 140 days; format: organism-based; conditions: in vivo, 3360 h, time < 140 day
Cytochrome P450 3A4 = Cytochrome P450 3A4 (Homo sapiens, UniProt P08684); assay: Inhibition of CYP3A4 in human liver microsomes using midazolam as substrate incubated for 10 mins in presence of NADPH by LC-MS/MS analysis; format: ADME, Microsome
[7] = Permeability across basolateral to apical side in human Caco-2 cells incubated for 2 hrs by LC/MS/MS analysis; format: ADME, cell-based; conditions: read-out: permeability
[8] = target: T1, Muscarinic acetylcholine receptor M2 (Homo sapiens, UniProt P08172); assay: Agonist activity at muscarinic M2 receptor (unknown origin); format: functional
T1 sequence (P08172 whole entry): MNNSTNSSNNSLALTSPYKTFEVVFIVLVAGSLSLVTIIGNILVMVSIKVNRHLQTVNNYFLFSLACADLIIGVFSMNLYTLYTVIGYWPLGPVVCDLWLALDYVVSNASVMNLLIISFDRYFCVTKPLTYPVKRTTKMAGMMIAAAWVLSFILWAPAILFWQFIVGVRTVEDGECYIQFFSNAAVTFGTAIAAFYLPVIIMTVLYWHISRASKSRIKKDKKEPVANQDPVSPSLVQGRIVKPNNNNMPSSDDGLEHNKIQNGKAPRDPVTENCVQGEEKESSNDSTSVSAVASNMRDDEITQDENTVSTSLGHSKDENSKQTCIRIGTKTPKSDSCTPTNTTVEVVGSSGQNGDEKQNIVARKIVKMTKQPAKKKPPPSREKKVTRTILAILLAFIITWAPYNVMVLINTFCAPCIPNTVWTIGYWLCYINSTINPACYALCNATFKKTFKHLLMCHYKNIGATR

[9] = Plasma protein binding in mouse at 1 uM measured after 6 hrs LC-MS/MS analysis; format: ADME, cell-free; conditions: read-out: PPB (converted)
[10] = Plasma protein binding in human assessed as unbound fraction at 1 uM measured after 6 hrs LC-MS/MS analysis; format: ADME, cell-free
[11] = Terminal half life in ICR (CD-1) mouse at 2 mg/kg, po or 1 mg/kg, iv after 1 week by LC-MS/MS analysis; format: ADME, organism-based; conditions: in vivo, time 1 weeks, read-out: beta t1/2 (converted)
[12] = Ratio of drug level in rat blood to plasma; format: ADME, cell-free
[13] = Metabolic stability in mouse microsomes assessed as intrinsic clearance; format: ADME, Microsome; conditions: read-out: CLH
[14] = Terminal half life in Sprague-Dawley rat at 2 mg/kg, po or 1 mg/kg, iv after 1 week by LC-MS/MS analysis; format: ADME, organism-based; conditions: in vivo, time 1 weeks, read-out: beta t1/2 (converted)
[15] = Plasma protein binding in human at 1 uM measured after 6 hrs LC-MS/MS analysis; format: ADME, cell-free; conditions: read-out: PPB (converted)
[16] = Toxicity in Athymic NTac:NIH-Whn nude rat xenografted with human Karpas-422 cells assessed as reduction in body weight at 0.3 to 30 mg/kg, po, qd measured upto 140 days; format: organism-based; conditions: in vivo, 3360 h, dose 0.3-30 mg/kg, time < 140 day
[17] = Drugmetabolism in rat hepatocytes assessed as CYP3A4 mediated metabolite formation; format: ADME, cell-based, Hepatocyte
[18] = Volume of distribution at steady state in wild type Beagle dog at 2 mg/kg, po or 1 mg/kg, iv after 1 week by LC-MS/MS analysis; format: ADME, organism-based, Canis lupus familiaris; conditions: in vivo, 168 h, time 1 weeks
[19] = Antitumor activity against human Karpas-422 cells xenografted Athymic BALB/c nude mouse assessed as inhibition of tumor growth at 3 to 100 mg/kg, po bid, for 30 days treatment started at twenty fifth day after cancer cell implantation and followed by stop dosing measured upto 70 days; format: functional; design: scale not given: the % may be the effect or the level left; conditions: dose 3-100 mg/kg, time 30 day
[20] = Plasma clearance in mouse assessed as hepatic extraction; format: ADME, cell-free; conditions: read-out: ERH
[21] = Metabolic stability in rat microsomes assessed as intrinsic clearance; format: ADME, Microsome; conditions: read-out: CLH
[22] = Plasma clearance in mouse; format: ADME, cell-free
[23] = Reduction of H3K27me3 level in human Karpas-422 cells xenografted Athymic BALB/c nude mouse tumor assessed at 10 mg/kg, po twice a day for 21 days; format: functional; design: scale not given: the % may be the effect or the level left; conditions: time 21 day
[24] = In vivo inhibition of PRC2 in PBMC collected from human Karpas-422 cells xenografted Athymic NTac:NIH-Whn nude rat assessed as reduction in H3K27me3 level at 30 mg/kg, po, qd for 42 days measured after 4 hrs of last dose by FACS method; format: functional; design: scale not given: the % may be the effect or the level left; conditions: time 42 day
[25] = Drug metabolism in bile duct cannulated Wistar Han rat assessed as parent compound recovery in urine at 3 mg/kg, iv after 8 hrs by LC-MS/MS analysis; format: ADME, organism-based; conditions: read-out: Drug metabolism
[26] = Antitumor activity against human Karpas-422 cells xenografted Athymic BALB/c nude mouse assessed as inhibition of tumor growth at 100 mg/kg, po for 26 days; format: functional; design: scale not given: the % may be the effect or the level left; conditions: time 26 day
[27] = Dose normalized AUC in ICR (CD-1) mouse at 2 mg/kg, po or 1 mg/kg, iv after 1 week by LC-MS/MS analysis; format: ADME, organism-based; conditions: in vivo, 168 h, time 1 weeks
Cytochrome P450 2C9 = Cytochrome P450 2C9 (Homo sapiens, UniProt P11712); assay: Inhibition of CYP2C9 human liver microsomes using diclofenac as substrate incubated for 15 mins by LC-MS/MS analysis; format: ADME, Microsome
cells = conditions: Homo sapiens, G-401, 48 h
Description: Inhibition of PRC2 in human G-401 cells assessed as H3K27 methylation status incubated for 48 hrs by ELISA method

[28] = Antitumor activity against human Karpas-422 cells xenografted Athymic BALB/c nude mouse assessed as inhibition of tumor growth at 30 mg/kg, po bid, for 33 days; format: functional; design: scale not given: the % may be the effect or the level left; conditions: time 33 day
[29] = Oral biovailability in Beagle dog at 2 mg/kg, po; format: ADME, organism-based, Canis lupus familiaris; conditions: in vivo
[30] = Oral biovailability in ICR (CD-1) mouse at 2 mg/kg, po; format: ADME, organism-based; conditions: in vivo
[31] = target: Voltage-gated inwardly rectifying potassium channel KCNH2 (Homo sapiens, UniProt Q12809); assay: Inhibition of hERG potassium channel in HEK293 cells by manual patch clamp assay; format: toxicity, cell-based
[32] = High throughput solubility of the compound in SGF after 16 to 24 hrs by MS/MS analysis; format: physicochemical; conditions: time 16-24 hrs
[33] = Dose normalized AUC in wild type Beagle dog at 2 mg/kg, po or 1 mg/kg, iv after 1 week by LC-MS/MS analysis; format: ADME, organism-based, Canis lupus familiaris; conditions: in vivo, 168 h, time 1 weeks
[34] = Intrinsic clearance in mouse hepatocytes measured per 10^6 cells; format: ADME, cell-based, Hepatocyte; conditions: read-out: CLH
[35] = Drugmetabolism in dog hepatocytes assessed as CYP3A4 mediated metabolite formation; format: ADME, cell-based, Canis lupus familiaris, Hepatocyte
Cytochrome P450 3A5 = Cytochrome P450 3A5 (Homo sapiens, UniProt P20815); assay: Inhibition of CYP3A5 in human liver microsomes by LC-MS/MS analysis; format: ADME, Microsome
Sequence of Cytochrome P450 3A5 (P20815 whole entry): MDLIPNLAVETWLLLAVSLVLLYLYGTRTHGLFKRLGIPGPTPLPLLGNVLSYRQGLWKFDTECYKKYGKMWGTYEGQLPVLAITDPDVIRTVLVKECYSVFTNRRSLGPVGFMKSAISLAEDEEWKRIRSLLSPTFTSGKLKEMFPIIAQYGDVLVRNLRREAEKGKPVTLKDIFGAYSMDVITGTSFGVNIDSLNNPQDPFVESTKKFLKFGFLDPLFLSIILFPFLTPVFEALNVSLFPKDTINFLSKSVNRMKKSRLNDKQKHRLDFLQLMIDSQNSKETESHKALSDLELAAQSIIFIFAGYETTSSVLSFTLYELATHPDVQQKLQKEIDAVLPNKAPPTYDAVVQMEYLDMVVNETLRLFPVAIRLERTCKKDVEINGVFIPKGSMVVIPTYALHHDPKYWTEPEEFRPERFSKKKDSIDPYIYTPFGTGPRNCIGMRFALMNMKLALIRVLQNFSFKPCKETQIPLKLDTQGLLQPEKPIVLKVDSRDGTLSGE

Sequence of Cytochrome P450 3A4 (P08684 whole entry): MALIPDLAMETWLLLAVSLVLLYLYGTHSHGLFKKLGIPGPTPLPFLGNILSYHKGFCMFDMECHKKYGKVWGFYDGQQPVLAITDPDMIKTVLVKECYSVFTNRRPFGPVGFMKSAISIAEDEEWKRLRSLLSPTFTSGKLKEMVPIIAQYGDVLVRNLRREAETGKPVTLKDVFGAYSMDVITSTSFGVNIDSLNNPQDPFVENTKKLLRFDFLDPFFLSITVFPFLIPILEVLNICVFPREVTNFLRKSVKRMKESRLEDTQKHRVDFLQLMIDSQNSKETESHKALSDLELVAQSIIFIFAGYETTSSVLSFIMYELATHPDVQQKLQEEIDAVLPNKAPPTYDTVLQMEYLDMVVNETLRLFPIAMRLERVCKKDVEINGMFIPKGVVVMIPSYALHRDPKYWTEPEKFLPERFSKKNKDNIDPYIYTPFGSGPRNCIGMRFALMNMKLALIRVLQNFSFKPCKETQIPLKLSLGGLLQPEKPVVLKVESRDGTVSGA
Sequence of Cytochrome P450 2C9 (P11712 whole entry): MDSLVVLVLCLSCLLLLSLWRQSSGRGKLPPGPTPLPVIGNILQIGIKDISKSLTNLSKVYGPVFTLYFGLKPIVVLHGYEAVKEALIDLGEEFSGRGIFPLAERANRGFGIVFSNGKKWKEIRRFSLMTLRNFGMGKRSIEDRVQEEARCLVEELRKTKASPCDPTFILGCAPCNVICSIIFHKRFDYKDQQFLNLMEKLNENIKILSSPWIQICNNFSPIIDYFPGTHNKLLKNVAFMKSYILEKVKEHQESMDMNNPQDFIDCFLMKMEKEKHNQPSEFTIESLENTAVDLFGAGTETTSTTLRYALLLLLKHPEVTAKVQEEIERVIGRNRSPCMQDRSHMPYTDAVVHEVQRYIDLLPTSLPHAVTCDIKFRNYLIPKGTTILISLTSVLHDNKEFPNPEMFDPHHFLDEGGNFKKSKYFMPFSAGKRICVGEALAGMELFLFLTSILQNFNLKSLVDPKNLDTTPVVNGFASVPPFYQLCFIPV
Sequence of Voltage-gated inwardly rectifying potassium channel KCNH2 (Q12809 whole entry): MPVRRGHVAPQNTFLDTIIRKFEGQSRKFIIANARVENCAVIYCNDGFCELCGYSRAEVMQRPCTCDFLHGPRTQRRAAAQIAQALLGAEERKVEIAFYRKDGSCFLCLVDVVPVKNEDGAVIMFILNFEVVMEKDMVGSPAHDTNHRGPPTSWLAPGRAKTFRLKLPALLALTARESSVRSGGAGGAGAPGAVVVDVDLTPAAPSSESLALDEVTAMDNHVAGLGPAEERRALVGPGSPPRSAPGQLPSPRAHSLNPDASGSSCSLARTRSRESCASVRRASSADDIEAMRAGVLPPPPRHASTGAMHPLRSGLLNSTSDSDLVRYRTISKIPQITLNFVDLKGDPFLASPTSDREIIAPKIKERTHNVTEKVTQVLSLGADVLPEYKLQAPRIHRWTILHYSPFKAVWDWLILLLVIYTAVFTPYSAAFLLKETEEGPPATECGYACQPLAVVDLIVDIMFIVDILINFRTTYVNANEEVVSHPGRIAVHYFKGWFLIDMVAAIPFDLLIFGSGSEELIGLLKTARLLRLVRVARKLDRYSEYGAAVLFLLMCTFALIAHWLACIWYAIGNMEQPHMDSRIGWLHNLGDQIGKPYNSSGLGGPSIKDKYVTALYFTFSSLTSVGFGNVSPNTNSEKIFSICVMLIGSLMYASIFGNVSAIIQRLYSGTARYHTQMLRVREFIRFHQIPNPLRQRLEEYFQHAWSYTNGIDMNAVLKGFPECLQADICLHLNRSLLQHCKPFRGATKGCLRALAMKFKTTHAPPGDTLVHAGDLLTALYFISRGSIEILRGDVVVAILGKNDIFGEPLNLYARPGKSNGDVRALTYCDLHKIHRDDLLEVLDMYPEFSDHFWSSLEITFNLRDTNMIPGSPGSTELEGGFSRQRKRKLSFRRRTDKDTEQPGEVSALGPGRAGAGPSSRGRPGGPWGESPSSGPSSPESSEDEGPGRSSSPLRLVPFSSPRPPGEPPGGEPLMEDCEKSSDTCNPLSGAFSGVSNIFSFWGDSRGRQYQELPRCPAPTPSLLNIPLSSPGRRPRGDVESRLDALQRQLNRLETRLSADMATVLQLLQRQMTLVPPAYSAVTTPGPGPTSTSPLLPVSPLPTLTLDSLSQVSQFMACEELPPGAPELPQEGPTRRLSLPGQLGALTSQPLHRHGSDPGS

In the case of Cc1ncccc1-c1cnc(NCc2c(F)ccc3c2CCO3)n2cnnc12, the microsomal CLint [1] is reported as 91 µL/min/mg, the hepatocyte CLint [2] is reported as 4.8 µL/min/1e6 cells and the half-life [3] is reported as 1.2 h. The hepatic extraction ratio [4] was 0.35, the blood plasma ratio [5] was 0.72 and the Activity [6] was “Toxic”. The IC50 (Cytochrome P450 3A4) was greater than 20 µM, the Papp B→A at 2 h [7] was 37 ×10⁻⁶ cm/s and the IC50 [8] was 8.9 µM. It also gave a fraction unbound at 6 h, 1 µM [9] of 0.15, a fraction unbound at 6 h, 1 µM [10] of 0.08 and a half-life [11] of 1.5 h. For the same molecule, the blood plasma ratio [12] was 0.98, the microsomal CLint [13] was 22 µL/min/mg and the half-life [14] was 3.2 h. For the same molecule, the fraction unbound at 6 h, 1 µM [15] was 0.08, the Activity [16] was “Non-Toxic” and the Drug metabolism [17] was “Metabolite_Detected”. For the same molecule, the Vdss [18] was 1 L/kg, the Activity [19] was 100% and the hepatic extraction ratio [20] was 0.42. For the same molecule, the microsomal CLint [21] was 22 µL/min/mg, the clearance [22] was 38 mL/min/kg and the Activity [23] was greater than 50%. The Activity [24] was 93%, the dose excreted at 8 h [25] was 0.5% and the Activity [26] was 100%. For the same molecule, the AUC/dose [27] was 884 nM·h, the IC50 (Cytochrome P450 2C9) was greater than 18 µM and the IC50 (cells) was 3 µM. For the same molecule, the Activity [28] was 100%, the bioavailability [29] was 73% and the bioavailability [30] was 77%. For the same molecule, the IC50 [31] was greater than 30 µM, the solubility [32] was 8.74 mM (≈ 3290 µg/mL) and the AUC/dose [33] was 2093 nM·h. The hepatocyte CLint [34] was 3.9 µL/min/1e6 cells, the Drug metabolism [35] was “Metabolite_Detected” and the IC50 (Cytochrome P450 3A5) was greater than 18 µM.
